Columns and labels:
Assay type in all cases: in vivo, human
[1] = tested on: bitter taste of 10 ppm mixture of Limonin, Naringin, and Normilin; assay: Sensory testing by trained taste panel: bitter taste, citrus bitter mixture; conditions: mean of 20 trained panelists, scale −5 to 5, compound at 10 or 40 ppm, ED at 40 ppm, 0 = reference 10 ppm mixture of Limonin
Text: (§1) A panel consisted in 20 trained taste panelists evaluated samples of each of Compounds 101-106 at 10 or 40 ppm for taste properties (sweet, licorice, lingering, bitter or astringent) on a scale of −5 to 5 (−5 to −4 denoted strong masking effect, −4 to −3 denoted moderate masking effect, −3 to −2 denoted masking effect, −2 to 0 denoted weak masking effect, while 5 to 4 denoted strong enhancing effect, 4 to 3 denoted moderate enhancing effect, 3 to 2 denoted enhancing effect, 2 to 0 denoted weak enhancing effect, 0 being equal to the intensity of a reference water solution containing 4% sucrose or 0.02% SG95 (>95% steviol glycosides) or 10 ppm mixture of Limonin, Naringin, and Normilin (for bitter and astringent). Note that ED and HED refers to eriodictyol or homoeriodictyol, respectively, at a concentration of 40 ppm.

[2] = tested on: sweet taste of water solution containing 4% sucrose; assay: Sensory testing by trained taste panel: sweet taste, sucrose reference; conditions: mean of 20 trained panelists, scale −5 to 5; compound at 10 or 40 ppm; 0 = reference water solution containing 4% sucrose
Text: as §1

[3] = tested on: lingering taste of 0.02% SG95 (>95% steviol glycosides); assay: Sensory testing by trained taste panel: lingering, SG95 reference; conditions: mean of 20 trained panelists, scale −5 to 5; compound at 10 or 40 ppm; 0 = reference 0.02% SG95
Text: as §1

[4] = tested on: astringent taste of 10 ppm mixture of Limonin, Naringin, and Normilin; assay: Sensory testing by trained taste panel: astringent taste, citrus bitter mixture; conditions: mean of 20 trained panelists, scale −5 to 5, compound at 10 or 40 ppm, ED at 40 ppm, 0 = reference 10 ppm mixture of Limonin
Text: as §1

Which “Bitter (Limonin, Naringin, and Normilin)” value [1] does the source give for `O=C1C[C@@H](c2ccc(O)c(O)c2)Oc2cc(O)cc(O)c21` [ED, eriodictyol, reference compound] here?
Its value is “Mask (−3 to −2 denoted masking effect)”.

For `O=C1C[C@@H](c2ccc(O[C@@H]3O[C@H](CO)[C@@H](O)[C@H](O)[C@H]3O)cc2)Oc2cc(O)ccc21` [Compound 101, liquiritin], which “Sweet (sucrose)” value [2] is on record?
The value was “Enhance (3 to 2 denoted enhancing effect)”.

And the “Bitter (Limonin, Naringin, and Normilin)” value [1]?
The value was “Mask (−3 to −2 denoted masking effect)”.

Which results are given for `O=C1C[C@@H](c2ccc(O)cc2)Oc2cc(O)ccc21` [Compound 102, liquiritigenin]?
Lingering (SG95) [3]: Mask (−3 to −2 denoted masking effect); Astringent (Limonin, Naringin, and Normilin) [4]: Mask (−3 to −2 denoted masking effect); Bitter (Limonin, Naringin, and Normilin) [1]: Mask (−3 to −2 denoted masking effect)

With `O=C(/C=C/c1ccc(O)cc1)c1ccc(O)cc1O` [Compound 104, isoliquiritigenin] as the molecule, how does the “Sweet (sucrose)” value [2] read?
Its value is “Enhance (3 to 2 denoted enhancing effect)”.

Reference: patent US20240237690A1, “Licorice Compounds and Their Use as Flavor Modifiers” (Firmenich SA, priority 2021, published 2024)
